Reference: patent US6423334B1, “Composition and method for enhancing transport across gastrointestinal tract cell layers” (priority 1997, dated 2002)

Columns and labels:
Caco-2 monolayers [1] = experiment: TEER of Caco-2 monolayers during flux experiments; type: cell-based, human; details: for overall decrease in resistance (TEER) of control cells / decrease in TEER: 2 hour flux; for overall decrease in resistance (TEER) of control cells: labelled drug alone, no enhancer
Experimental: Part a: Caco-2 monolayers (passage 20-40; 20-30 days post seeding on filters) were treated apically for 20-30 min with the 8mM and 40 mM Babassu oil in Hanks+25 mM Hepes. The oil was removed and replaced with Hanks containing 100 IU/ml Kraeber low molecular weight heparin. […] Transepithelial electrical resistance (TEER) measurements were taken at regular intervals for 20 min and subsequently every 30 min after the oil was removed with the Evohmeter (WPI) and chopsticks as shown in Table 4. The results are expressed as mean±S.E. (statistical differences examined using the two sided independent t-test).
(§1) A further 2 hour transepithelial transport study was carried out as above for [^3H]-TRH (0.12 nM) except that excess TRH (cold, 4.4 mM; Bachem, UK) was also administered apically. […] No significant difference between TRH Papp values at low concentrations (0.05-0.1 nM) and high TRH concentrations (4.4 mM) was observed providing evidence of passive TRH absorption across the monolayer.
(§2) Statistically significant differences existed between Babassu TEER results and those of the other oils (2 mM) at each 30 minute interval except between Babassu oil and Almond oil at the T=30 sampling. No significant differences in TEER was observed between Almond oil, Palm Kernel oil and Maize oil. The average 30% reduction in TEER observed for Almond, Palm Kernel and Maize oils at 2 mM during the 2 hour flux was not evident in the presence of Babassu oil (2 mM).

Caco-2 monolayers [2] = details: human, Caco-2, 2 h, 0.04 nM, pH 7.4
Experimental: (§4) The cell monolayers were incubated with prewarmed Hanks balanced salt solution (HBSS modified by adding 1 g glucose/I—final concentration 11 mM glucose and 24 mM Hepes, pH 7.4) at 37° C. for 30 minutes, adding 1 ml to apical and 2 ml to the basolateral side. At T=0, apical HBSS was replaced with 1 ml HBSS containing the mannitol transport solution and the plates were placed in a 37° C. incubator on an orbital shaker. Samples were taken from the apical side at T=0 and T=120 min and from the basolateral side every 30 min. The resulting samples were measured by liquid scintillation spectrophotometry using a Wallac 1409.
(§5) An experiment similar to the above transepithelial transport of mannitol experiment was conducted except that cytochalasin D (1 μg/ml), a potent tight junction opener, was added apically and basolaterally at time zero instead of the Babassu oil.
(§6) Following the procedures of the 2 hour flux experiments of Example 4 above, [^3H]-mannitol (0.04 nM) was added apically to Caco-2 monolayers in the presence of 0.1 mM, 5.0 mM, and 10 mM Almond Oil, 0.1 mM, 2.0 mM, 2.5 mM, 5.0 mM and 10 mM Palm Kernel oil as well as 0.1 mM, 1 mM and 2 mM Maize oil.

in vitro = details: human
Experimental: as §4, §5, §6

Caco-2 monolayers [3] = experiment: Flux of [3H]-TRH across Caco-2 monolayers; type: in vitro ADME, human
Experimental: (§3) The cell monolayers were incubated as given in Example 4 above.
as §1, §2

[4] = Flux of [3H]-TRH across Caco-2 monolayers; type: in vitro ADME, human; details: human, Caco-2
Experimental: as §3, §1, §2

% Transport per hour (Caco-2 monolayers [2]) | Papp A→B at 2 h, 0.04 nM (in vitro; Caco-2, pH 7.4, Papp) | Papp A→B at 2 h, 0.04 nM (in vitro; Caco-2, pH 7.4, apparent permeability coefficient (Papp) of mannitol) | TRH transported across the Caco-2 monolayer (Caco-2 monolayers [3]; Caco-2) | Papp A→B at 2 h, 0.12 nM [4] | Papp A→B at 2 h, 0.2 nM [4] | SMILES | overall decrease in resistance (TEER) of control cells (Caco-2 monolayers [1]) | reduction in TEER (Caco-2 monolayers [1]; [3H]-TRH 0.12 nM in the presence and absence of excess cold TRH (4.4 mM), 2 hours) | apparent permeability coefficient (Papp) of TRH (Caco-2 monolayers [3]; in the presence of cytochalasin D 1 μg/ml) | decrease in TEER (Caco-2 monolayers [1]; Cytochalasin D with [3H]-TRH) | decrease in TEER (Caco-2 monolayers [1]; Cytochalasin D with [3H]-mannitol) | reduction in TEER (Caco-2 monolayers [1]; cytochalasin D 1 μg/ml apically and basolaterally, mannitol flux) | initial reduction in TEER (Caco-2 monolayers [1]; cytochalasin D 1 μg/ml, TRH flux, first hour) | additional reduction in TEER (Caco-2 monolayers [1]; cytochalasin D 1 μg/ml, TRH flux, remaining hour)
0.28% | 0.79 ± 0.03 ×10⁻⁶ cm/s | 0.79 ×10⁻⁶ cm/s | – | – | – | OC[C@@H](O)[C@@H](O)[C@H](O)[C@H](O)CO [mannitol, mannitol, D -[1-^3H (n)]] | 12.8% | – | – | – | – | – | – | –
– | – | – | 0.2% | 0.53 ×10⁻⁶ cm/s | 0.72 ± 0.025 ×10⁻⁶ cm/s | NC(=O)[C@@H]1CCCN1C(=O)[C@H](Cc1cnc[nH]1)NC(=O)[C@@H]1CCC(=O)N1 [TRH, Thyrotropin releasing hormone] | 29.2% | approximately 20% | – | – | – | – | – | –
– | – | – | – | – | – | C=C1[C@@H](C)[C@H]2[C@H](Cc3ccccc3)NC(=O)[C@]23[C@H](OC(C)=O)/C=C/[C@@](C)(O)C(=O)[C@@H](C)C/C=C/[C@H]3[C@@H]1O [cytochalasin D] | – | – | 5.7e-06 cm/s | 50% | 59% | 60% | 40% | 22%
